Results as given in paper PMC11268729 (Journal of hepatology, 2023).
Entries after “also recorded” stand apart in the source; their conditions may differ.

Columns and labels:
[1] = tested on: PaDLOCs; assay: Metabolic turnover of CYP substrates in PaDLOCs; conditions: PaDLOCs vs plate-cultured intact HLOs; slightly lower rates than PHHs
[2] = tested on: PHH PaDLOCs; assay: PHH liver-chip ALT/AST release and albumin production; assay type: cell-based, human; conditions: PHH on chip; APAP and FIAU
[3] = tested on: PaDLOCs; assay: PaDLOC; assay type: cell-based, human; conditions: for albumin production: across 7 days; for ALT or AST release: monotherapy 500 nM
[4] = tested on: PaDLOCs; assay: PaDLOC confocal imaging; assay type: cell-based, human; conditions: for UMAP morphological clustering: PaDLOCs, CellProfiler cell-level features; for morphological deviation: monotherapy 500 nM
[5] = tested on: PaDLOCs; assay: scRNA-seq differential expression in hepatocytes of drug-treated PaDLOCs; assay type: cell-based, human; conditions: fialuridine 10 μM, tenofovir 500 nM; for KCNQ10T1 expression / RPS10 expression: compared to control; for DGAT1 expression: tenofovir-inarigivir 250 + 250 nM
[6] = tested on: 72.3-derived HLOs; assay: Morphological cell profiling; assay type: cell-based, human; conditions: for phenotypic cluster (UMAP/HDBScan): cells treated at respective IC50, 72.3-derived HLOs
[7] = tested on: patients; conditions: monotherapy, two clinical trials for HBV; cited from earlier work
[8] = tested on: dispersed HLOs; assay: Dispersed HLOs in 384-well plates, cell viability counts by high-content imaging; assay type: cell-based, human; conditions: for cytotoxicity: monotherapies up to concentration of 100 μM, 120 hrs
[9] = in vivo; cited from earlier work
[10] = single agents 500 nM, combination 250 + 250 nM

CC(=O)Nc1ccc(O)cc1 [APAP, acetaminophen]
metabolic turnover rate [1]: increased rates compared to plate-cultured intact HLOs | ALT/AST release and reduced albumin production [2]: not significant | albumin production ([3]; APAP 100 μM, FIAU 10 μM): diminished | UMAP morphological clustering [4]: unique cluster

O=c1[nH]c(=O)n([C@@H]2O[C@H](CO)[C@@H](O)[C@@H]2F)cc1I [FIAU, fialuridine]
KCNQ10T1 expression [5]: overexpression | RPS10 expression [5]: suppressed expression | GSTP1 expression [5]: decreased expression | DGAT1 expression [5]: downregulated | ALT/AST release and reduced albumin production [2]: not significant | albumin production ([3]; APAP 100 μM, FIAU 10 μM): diminished | confocal phenotype (CellMask, lipid droplets) ([4]; APAP 100 μM, FIAU 10 μM, day 7 of treatment): high lipid content and a reduction of CellMask staining | multidimensional perturbation of cells ([6]; sub-cytotoxic concentrations, Fig. S5 B-C): diminished mitochondrial mass and lipid accumulation

Oc1ncnc2[nH]ncc12 [allopurinol]
phenotypic cluster (UMAP/HDBScan) [6]: Cluster α; also recorded: Cluster γ

O=P1(N(CCCl)CCCl)NCCCO1 (stereo not shown) [cyclophosphamide]
metabolic turnover rate [1]: increased rates compared to plate-cultured intact HLOs

CO[C@@H]1[C@H](OP(=O)(OC[C@H]2O[C@@H](n3cnc4c(N)ncnc43)C[C@@H]2O)SCOC(=O)OC(C)C)[C@@H](CO)O[C@H]1n1ccc(=O)[nH]c1=O (stereo partly shown) [inarigivir soproxil]
toxicity in clinical trials [7]: no clear signs of toxicity | cytotoxicity [8]: negligible cytotoxicity | ALT or AST release [3]: did not increase ALT or AST release | albumin production [3, 10]: no effect was observed | UMAP morphological clustering [4]: clustered with DMSO control | morphological deviation [4]: no morphological deviation from DMSO-treated control

Cc1ccnc2c1NC(=O)c1cccnc1N2C1CC1 [nevirapine]
IC50 relative to reported Cmax in patients ([8]; 72.3 derived HLOs, Cmax ref 53): over double that of reported Cmax | phenotypic cluster (UMAP/HDBScan) [6]: Cluster γ

CO[C@H]1/C=C/O[C@@]2(C)Oc3c(C)c(O)c4c(O)c(c(/C=N/N5CCN(C)CC5)c(O)c4c3C2=O)NC(=O)/C(C)=C\C=C\[C@H](C)[C@H](O)[C@@H](C)[C@@H](O)[C@@H](C)[C@H](OC(C)=O)[C@@H]1C [rifampin]
phenotypic cluster (UMAP/HDBScan) [6]: Cluster γ

C[C@H](Cn1cnc2c(N)ncnc21)OCP(=O)(O)O [tenofovir]
KCNQ10T1 expression [5]: overexpression | RPS10 expression [5]: suppressed expression | GSTP1 expression [5]: decreased expression | DGAT1 expression [5]: downregulated | Cmax [9]: ~500 nM | cytotoxicity [8]: negligible cytotoxicity | ALT or AST release [3]: did not increase ALT or AST release | albumin production [3, 10]: no effect was observed | UMAP morphological clustering [4]: clustered with DMSO control | morphological deviation [4]: no morphological deviation from DMSO-treated control

Nc1nc2nc[nH]c2c(=S)[nH]1 [thioguanine]
phenotypic cluster (UMAP/HDBScan) [6]: Cluster α
